From PubChem BioAssay AID1963847 (Molecular Pharmacology Branch, DTP, NCI, 2024)
“And” between values parts separate entries of the source, which are not always exact repeats. Equal entries are not always repeated.

Test system: 415267-285-R-J2-PDC complex spheroid viability
Assay: Anticancer human tumor 415267-285-R-J2-PDC patient-derived breast carcinoma cell line growth inhibition [POLQ]
Conditions: for viability, T/C: stronger effect = lower value
Protocol: Multicellular complex tumor spheroid response to Polymerase (POL) inhibitors (novobiocin, ART-558, RP6685) in combination with a variety of drugs and investigational agents in selected tumor cell lines
The POL inhibitors (novobiocin, ART-558, and RP6685) were evaluated both individually and in combination with standard of care and investigational anticancer small molecules within a complex spheroid model of solid tumors. . Complex spheroids include a stromal component modeled by human endothelial cells (HUVEC) and fibroblasts modeled by human mesenchymal stem cells (MSCs). The concentration ranges selected for each drug and investigational agent were based upon clinically achievable concentrations if the clinical Cmax of the agent was known.
Compounds. The drugs and investigational agents: novobiocin (NSC847541), ART-558 (NSC835418), RP-6685 (NSC848927), peposertib (NSC802822), ceralasertib (NSC780249), elimusertib (NSC800525), camonsertib (NSC841442), AZD-1390 (NSC803789), olaparib (NSC753686), talazoparib (NSC767125), rucaparib (NSC756644), sotorasib (NSC818433), MRTX-1133 (NSC836407), SN-38 (NSC673596), topotecan (NSC609699), epotoside (NSC141540), doxorubicin (NSC123127), gemcitabine (NSC613327), 5-fluorouracil (NSC19893), paclitaxel (NSC125973), vemurafenib (NSC761431), MSA-2 (NSC828583), SN-011 (NSC837082), adavosertib (NSC754352), prexasertib (NSC758257), carboplatin (NSC241240) and oxaliplatin (NSC266046), were obtained from the National Cancer Institute (NCI) Developmental Therapeutics Program Chemical Repository (21). The FDA-approved anticancer drug set is available from the Developmental Therapeutics Program at https://dtp.cancer.gov/organization/dscb/obtaining/. […] The stock solutions were prepared in dimethyl sulfoxide (DMSO, Sigma-Aldrich, St. Louis, MO, cat. D2650), except for the platinum compounds which were prepared in saline (Quality Biological, Gaithersburg, MD, cat. 114-055-101), at 800-fold the tested concentration and stored at -70 degrees C prior to their use. All drugs and investigational agents were tested over a range starting from a high concentration at or near the clinical Cmax and decreasing in half-log increments. If the clinical Cmax for an agent had not been determined, the highest concentration tested was 10 microM, except for SN-38, which was tested at a high concentration of 1 microM.
Cell Culture. All cells were maintained in an incubator at 37 degrees C and 5% CO2 with 95% humidity. The PDC lines were cultured according to standard operating procedures established by the NCI PDMR (https://pdmr.cancer.gov). Table 3 of the manuscript, lists the cell lines along with the number of the three cell types plated to form the mct-spheroids and media for tumor cell growth. After thawing, all PDC lines, except 997537-175-T-J1-PDC and 415267-285-R-J2-PDC, were cultured in Matrigel-coated flasks prepared with a working solution of 1X Ham's F-12 nutrient mix, without supplementation (Thermo Fisher Scientific, cat. 11765054), 100 U/mL penicillin-streptomycin (Thermo Fisher Scientific, cat. 15140122), and 2.5% Matrigel (Corning Inc., Corning, NY, cat. 354248) for the first three passages. The two PDC lines 997537-175-T-J1-PDC and 415267-285-R-J2-PDC were cultured on uncoated flasks. The 857933-349-R-J2-PDC line was cultured in 6C/Colon 1B media containing advanced DMEM/F-12 (Thermo Fisher Scientific, cat. 12634028), 10 mM HEPES (Thermo Fisher Scientific, cat. 15630080), 1X GlutaMAX supplement (Thermo Fisher Scientific, cat. 35050061), 0.1 mg/mL primocin (InvivoGen, San Diego, CA, cat. ant-pm-2), 10% defined fetal bovine serum, heat inactivated (HyClone Laboratories Inc., Logan, UT, cat. SH30070.03HI), 50% L-WRN conditioned media (ATCC, cat. CRL-3276), 1.25 mM N-Acetyl-L-cysteine (Sigma-Aldrich, cat. A9165), 10 mM nicotinamide (Sigma-Aldrich, cat. N0636), 1X B-27 supplement (Thermo Fisher Scientific, cat. 17504044), 1X N-2 supplement (Thermo Fisher Scientific, cat. […]
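Note: spheroids exposed to compounds for one week before readout.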
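Throughout, for viability, T/C: luminescence used as stand-in measure of viable cells; 100% = DMSO vehicle control viability.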

## Cn1ncnc1[C@H]1c2n[nH]c(=O)c3cc(F)cc(c23)N[C@@H]1c1ccc(F)cc1 + Cc1cccc(N(C)C(=O)C2C(O)CCN2c2nc(C)cc(C(F)(F)F)c2C#N)c1
Curve of first compound, second compound 0.0316 µM
  IC50: > 100 nM
Curve of first compound, second compound 0.1 µM
  IC50: > 100 nM
Curve of first compound, second compound 0.316 µM
  IC50: > 100 nM
Curve of first compound, second compound 1 µM
  IC50: > 100 nM
Curve of first compound, second compound 3.16 µM
  IC50: > 100 nM
Curve of first compound, second compound 10 µM
  IC50: > 100 nM
Second compound 0.0316 µM, first compound 0.000316 µM
  viability, T/C: 92.9%
Second compound 0.0316 µM, first compound 0.001 µM
  viability, T/C: 103%
Second compound 0.0316 µM, first compound 0.00316 µM
  viability, T/C: 106%
Second compound 0.0316 µM, first compound 0.01 µM
  viability, T/C: 96.3%
Second compound 0.0316 µM, first compound 0.0316 µM
  viability, T/C: 104%
Second compound 0.0316 µM, first compound 0.1 µM
  viability, T/C: 96.5%
Second compound 0.1 µM, first compound 0.000316 µM
  viability, T/C: 90.8%
Second compound 0.1 µM, first compound 0.001 µM
  viability, T/C: 93.9%
Second compound 0.1 µM, first compound 0.00316 µM
  viability, T/C: 114%
Second compound 0.1 µM, first compound 0.01 µM
  viability, T/C: 109%
Second compound 0.1 µM, first compound 0.0316 µM
  viability, T/C: 99.9%
Second compound 0.1 µM, first compound 0.1 µM
  viability, T/C: 97.9%
Second compound 0.316 µM, first compound 0.000316 µM
  viability, T/C: 97.1%
Second compound 0.316 µM, first compound 0.001 µM
  viability, T/C: 90.4%
Second compound 0.316 µM, first compound 0.00316 µM
  viability, T/C: 95.7%
Second compound 0.316 µM, first compound 0.01 µM
  viability, T/C: 96.8%
Second compound 0.316 µM, first compound 0.0316 µM
  viability, T/C: 95.3%
Second compound 0.316 µM, first compound 0.1 µM
  viability, T/C: 87.2%
Second compound 1 µM, first compound 0.000316 µM
  viability, T/C: 103%
Second compound 1 µM, first compound 0.001 µM
  viability, T/C: 95.6%
Second compound 1 µM, first compound 0.00316 µM
  viability, T/C: 93.9%
Second compound 1 µM, first compound 0.01 µM
  viability, T/C: 101%
Second compound 1 µM, first compound 0.0316 µM
  viability, T/C: 98.3%
Second compound 1 µM, first compound 0.1 µM
  viability, T/C: 101%
Second compound 3.16 µM, first compound 0.000316 µM
  viability, T/C: 92.9%
Second compound 3.16 µM, first compound 0.001 µM
  viability, T/C: 97.1%
Second compound 3.16 µM, first compound 0.00316 µM
  viability, T/C: 103%
Second compound 3.16 µM, first compound 0.01 µM
  viability, T/C: 103%
Second compound 3.16 µM, first compound 0.0316 µM
  viability, T/C: 99.8%
Second compound 3.16 µM, first compound 0.1 µM
  viability, T/C: 87.7%
Second compound 10 µM, first compound 0.000316 µM
  viability, T/C: 93.3%
Second compound 10 µM, first compound 0.001 µM
  viability, T/C: 97.9%
Second compound 10 µM, first compound 0.00316 µM
  viability, T/C: 110%
Second compound 10 µM, first compound 0.01 µM
  viability, T/C: 93%
Second compound 10 µM, first compound 0.0316 µM
  viability, T/C: 91%
Second compound 10 µM, first compound 0.1 µM
  viability, T/C: 90.5%

## COc1cc2cc(C(=O)CCC(=O)O)sc2cc1OC
Compound 0.0316 µM
  viability, T/C: 99.2% and 104% and 92.9%
Compound 0.1 µM
  viability, T/C: 101% and 104% and 90.8%
Compound 0.316 µM
  viability, T/C: 93.2% and 88% and 110%
Compound 1 µM
  viability, T/C: 104% (2×) and 99.6%
Compound 3.16 µM
  viability, T/C: 94.7% and 99.9% and 99.6%
Compound 10 µM
  viability, T/C: 111% and 99.6% and 109%
Curve of compound
  IC50: > 10000 nM

## CCc1cc2c(N3CCc4c(cc(Cn5ccnc5)cc4-c4cn(C)nc4C(F)(F)F)C3=O)cc(C)nc2c(OC)n1
Compound 0.0316 µM
  viability, T/C: 84.8% and 99.7% and 90.9%
Compound 0.1 µM
  viability, T/C: 89.5% and 98.3% and 92.6%
Compound 0.316 µM
  viability, T/C: 74.6% and 79% and 86.6%
Compound 1 µM
  viability, T/C: 80.3% and 82.8% and 91.5%
Compound 3.16 µM
  viability, T/C: 71.9% and 84% and 83.9%
Compound 10 µM
  viability, T/C: 69% and 78.6% and 69.5%
Curve of compound
  IC50: > 10000 nM

## Nc1ccc(C#CCN(C(=O)Cc2ncc(C(F)(F)F)cc2C(F)(F)F)c2ccc(F)cc2)nn1
Compound 0.0316 µM
  viability, T/C: 93.6% [middle of 13 runs]
Compound 0.1 µM
  viability, T/C: 101% [middle of 13 runs]
Compound 0.316 µM
  viability, T/C: 101% [middle of 12 runs]
Compound 1 µM
  viability, T/C: 103% [middle of 13 runs]
Compound 3.16 µM
  viability, T/C: 107% [middle of 13 runs]
Compound 10 µM
  viability, T/C: 106% [middle of 13 runs]
Compound alone, run of 01/19/2024
  IC50: > 10000 nM

## Cn1ncnc1[C@H]1c2n[nH]c(=O)c3cc(F)cc(c23)N[C@@H]1c1ccc(F)cc1
Compound 0.000316 µM
  viability, T/C: 88.1% and 97.7% and 104%
Compound 0.001 µM
  viability, T/C: 98.2% and 104% and 91.7%
Compound 0.00316 µM
  viability, T/C: 90.7% and 92.5% and 103%
Compound 0.01 µM
  viability, T/C: 101% and 98.7% and 94.5%
Compound 0.0316 µM
  viability, T/C: 108% and 89.2% and 99%
Compound 0.1 µM
  viability, T/C: 93.3% and 102% and 100%
Curve of compound
  IC50: > 100 nM
